For one series, the system named is S. epidermidis ATCC12228. Briefly: MIC assay (broth dilution in tubes, CLSI). In kind it is cell-based, Staphylococcus epidermidis. The conditions noted are these: for MIC: Staphylococcus epidermidis. From the text: Staphylococcus epidermidis ATCC12228 and RP62A strains were purchased from the American Type Culture Collection (ATCC, Manassas, USA). Staphylococcus aureus ATCC29213, Escherichia coli ATCC25922 and Pseudomonas aeruginosa ATCC27853 were kindly provided by Dr. Bijie Hu at Zhongshan Hospital (Shanghai, China). S. epidermidis strains se527, se886, se847, seG203, Streptococcus pyogenes strain 144, and Streptococcus mutans strain 128 were all clinical isolates from Zhongshan Hospital and Huashan Hospital (Shanghai, China). If not stated otherwise, S. epidermidis and S. aureus strains were grown at 37°C in tryptic soy broth (TSB, Oxoid) containing 0.25% glucose, E. coli and P. aeruginosa strains were grown at 37°C in Luria-Bertani (LB, Oxoid).
MIC assays for the antibacterial activities of the compounds were performed according to the broth micro-dilution (in tubes) method of the Clinical and Laboratory Standards Institute (CLSI) of America. The Minimal Bactericidal Concentration (MBC) was obtained by subculturing 100 μl from each negative (no visible bacterial growth) tube from the MIC assay, onto substance-free Mueller-Hinton agar plates. The plates were incubated at 37°C for 24 hours, and the MBC was defined as the lowest concentration of substance which produced subcultures growing no more than five colonies on each plate.
On the technique in general: Dilution methods test growth across graded concentrations, often in twofold steps.

Another series deals with T1, YycG' protein (Staphylococcus epidermidis, UniProt Q8CU87).
T1 construct: of YycG (370aa to 610aa) was amplified by PCR; His-tag (pET28a) (N); made in house; host or cells: E. coli BL21 (pET28a, pETYycG')
T1 sequence (Q8CU87 370-610): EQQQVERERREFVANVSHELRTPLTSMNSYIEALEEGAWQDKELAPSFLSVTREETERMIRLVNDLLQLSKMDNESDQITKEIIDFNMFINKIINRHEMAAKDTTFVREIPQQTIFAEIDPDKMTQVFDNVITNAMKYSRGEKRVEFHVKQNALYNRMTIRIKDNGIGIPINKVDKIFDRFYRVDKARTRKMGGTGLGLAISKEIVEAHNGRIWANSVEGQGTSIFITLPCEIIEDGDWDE
In words: Compound-YycG' protein binding assay (SPR, Biacore 3000). The conditions noted are these: SPR sensorgram shape. From the text:
The YycG' fragment containing the cytoplasmic signal domains (the HATPase_c and HisKA domain, see Figure 1A) of YycG (370aa to 610aa) was amplified by PCR (with the chromosomal DNA of S. epidermidis ATCC12228 as the template, and (5' […] 3') and (5' […] 3') as the primers. Subsequently, the fragment was digested with BamHI and XholI (TAKARA, Japan) and ligated into the corresponding sites of pET28a (Promega, Madison, USA) to obtain pETYycG'. The expressed YycG' protein was purified with the ProBond™ Purification System (Invitrogen, California, USA), according to the manufacturer's protocol.
The in vitro binding affinities of the inhibitor compounds to the YycG' protein was determined using surface plasmon resonance (SPR) biosensor technology on the dual flow cell Biacore 3000 instrument (Biacore AB, Uppsala, Sweden) with a similar method as described in our previous study. Immobilization of the YycG' protein to the hydrophilic carboxymethylated dextran matrix of the sensor chip CM5 (Biacore) was carried out by the standard primary amine coupling reaction. […] The equilibrium constants (KD) evaluating the protein-ligand binding affinity were determined by the steady state or the kinetic state affinity fitting model encoded in the Biacore analysis software.

Series [1] can be described thus: Cytotoxicity on Vero cell (MTT, Cell Proliferation Kit I). Conditions: African green monkey, Vero cells, highest concentration tested 200 μM. In kind it is cell-based, African Green-monkey. On the procedure: Cytotoxicity of the antibacterial compounds on cultured Vero cell was measured by using the Cell Proliferation Kit I (MTT) (Roche, Indianapolis, USA) according to the manufacturer's protocol. Addition of DMSO (1%) in the medium produced a slight cytotoxicity on Vero cell, which could easily be corrected for. Each assay was performed in quadruplicate and repeated three times. The results were converted to percentage of the control (cells only treated with 1% DMSO) and CC50 (concentrations that produce a 50% cytotoxicity effect on Vero cell) was calculated by the Origin v7.0 software (OriginLab, Northampton, USA). Hemolytic activities of the compounds were determined by using healthy human erythrocytes. The erythrocytes were washed three times in sterile saline and resuspended to 5% prior to the assay. […] Cells without compound treatment and cells with 1% Triton-100 treatment were used as 0% and 100% hemolysis controls, respectively. The cell suspensions were incubated for 1 hour at 37°C and centrifuged at 1000×g for 10 min. Volumes of 100 μl supernatants were transferred to another sterile plate and hemoglobin release from the cells was determined at 570 nm. […] The hemolysis assays were repeated twice.

In brackets after ≈: the same amount, converted by molar mass. Where two headings read alike, the source gives them in different places.

With `Cc1ccc(NC(=O)CN2C(=O)S/C(=C\c3ccc(OCc4cccc(C(O)O)c4)cc3)C2=O)cc1` [Compound 7], the “Antibacterial effectiveness” value in the series on S. epidermidis ATCC12228 (ATCC12228 versus RP62A) was “only effective against the non-biofilm-forming strain ATCC12228”. In addition, the MIC in the series with S. epidermidis ATCC12228 (ATCC12228, Table 2, as tested on S. epidermidis ATCC 12228, read-out: MICs) amounted to 0.2 µM (≈ 0.101 µg/mL); in the series on S. epidermidis ATCC12228 (S. epidermidis ATCC12228 (non-biofilm-forming strain), read-out: Minimal inhibitory concentration (MIC)), 0.2 µM (≈ 0.101 µg/mL). The “Association/dissociation pattern in SPR” value on YycG' protein is “slow association and slow dissociation”. Moreover, in series [1], the CC50 (commonly the concentration that lowers cell viability or growth by half) was > 200 µM.

(Values after paper PMC1660542, “Structure-based discovery of inhibitors of the YycG histidine kinase: New chemical leads to combat Staphylococcus epidermidis infections” (BMC Microbiology, 2006).)
